Test [1] addresses T1, Human κ-Opioid (KOP) (Homo sapiens, UniProt P41145).
T1 construct: purchased Perkin Elmer Biosignal
Briefly: Radioligand binding, human κ-opioid (KOP) membranes, filtration, [3H]-Diprenorphine. The settings on record: compound at 10 μM. In short, it runs like this: (§1)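 Percent inhibition of radioligand binding measured on recombinant human membranes: NK1 with [125I]-Substance P, KOP with [3H]-Diprenorphine. Incubation 1 h at room temperature, then harvest onto 0.3% PEI-soaked filters, cold Tris-HCl pH 7.4 washes and scintillation counting; non-specific binding from reference ligand wells.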

Test [2] addresses T2, Human δ-opioid (DOP) (Homo sapiens, UniProt P41143).
T2 construct: purchased Perkin Elmer Biosignal
As to the kind of experiment: Radioligand binding, human δ-opioid (DOP) membranes, FlashPlate, [3H]-Bremazocine. Conditions: compound at 10 μM. In short, it runs like this: (§2)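 Cloned human receptor membranes were coated onto FlashPlate wells and incubated with radioligand and compound (added from a 0.5 mM DMSO daughter plate) for 1 hour at room temperature in the dark. Scintillation counting gave percent inhibition, with DMSO defining total and reference ligand defining non-specific binding.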

Test [3] concerns the target T3, Human melanocortin (MC5) (Homo sapiens, UniProt P33032).
T3 construct: purchased Perkin Elmer Biosignal
Briefly: Radioligand binding, human melanocortin MC5 membranes, FlashPlate, [125I]-NDP-αMSH. The settings on record: compound at 10 μM. An outline of the steps:
as §2

In test [4] the target is T4, Human μ-opioid (MOP) (Homo sapiens, UniProt P35372).
T4 construct: purchased Perkin Elmer Biosignal
As to the kind of experiment: Radioligand binding, human μ-opioid (MOP) membranes, FlashPlate, [3H]-Naloxone. Conditions: compound at 10 μM. In short, it runs like this:
as §2

For test [5], the target named is T5, Mouse urotensin (mUR2) (Mus musculus, UniProt Q8VIH9).
T5 construct: purchased Perkin Elmer Biosignal
T5 sequence (Q8VIH9 1-385): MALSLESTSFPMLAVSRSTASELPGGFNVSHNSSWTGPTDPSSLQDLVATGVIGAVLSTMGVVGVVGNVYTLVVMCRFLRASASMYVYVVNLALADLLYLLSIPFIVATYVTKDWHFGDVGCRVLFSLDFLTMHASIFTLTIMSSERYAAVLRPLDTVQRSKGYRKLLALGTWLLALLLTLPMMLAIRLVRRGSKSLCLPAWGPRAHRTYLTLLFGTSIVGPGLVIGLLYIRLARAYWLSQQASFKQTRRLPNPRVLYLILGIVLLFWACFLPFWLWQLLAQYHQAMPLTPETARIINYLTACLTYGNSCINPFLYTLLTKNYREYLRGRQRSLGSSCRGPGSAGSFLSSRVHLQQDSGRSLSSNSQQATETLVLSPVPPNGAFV
Briefly: Radioligand binding, mouse urotensin mUR2 membranes, FlashPlate, [125I]-Urotensin II. Conditions: compound at 10 μM. An outline of the steps:
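Cloned mouse urotensin (mUR2) receptor membranes from Perkin Elmer Biosignal were immobilized in FlashPlate microplates using a proprietary coating. Each well got 19.5 μl buffer, then 0.5 μl of DMSO, reference ligand, or compound. Adding 5 μl of [125I]-Urotensin II, diluted to 5× final concentration in binding buffer, started binding. Plates were sealed with TopSeal-A and incubated 1 hour at room temperature in the dark. Wells were counted for 30 seconds each on a TopCount after a 60-second delay, and percentage inhibition was calculated.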

Test [6] concerns the target T6, Human neuropeptide Y (NPY-Y1) (Homo sapiens, UniProt P25929).
T6 construct: purchased Perkin Elmer Biosignal
T6 sequence (P25929 1-384): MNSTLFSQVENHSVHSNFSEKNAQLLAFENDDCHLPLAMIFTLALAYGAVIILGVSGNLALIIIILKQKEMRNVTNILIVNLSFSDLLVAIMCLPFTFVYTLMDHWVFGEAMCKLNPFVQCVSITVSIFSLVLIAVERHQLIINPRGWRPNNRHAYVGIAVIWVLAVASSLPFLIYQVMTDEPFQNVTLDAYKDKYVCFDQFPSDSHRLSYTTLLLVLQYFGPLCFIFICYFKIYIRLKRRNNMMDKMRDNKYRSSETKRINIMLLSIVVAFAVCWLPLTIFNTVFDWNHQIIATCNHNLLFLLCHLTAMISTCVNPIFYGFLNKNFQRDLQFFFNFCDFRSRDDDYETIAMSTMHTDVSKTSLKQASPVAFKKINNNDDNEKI
Briefly: Radioligand binding, human neuropeptide Y NPY-Y1 membranes, FlashPlate, [125I]-PYY. Conditions: compound at 10 μM. An outline of the steps:
as §2

Test [7] deals with T7, Human melanin-concentrating hormone (MCH1) (Homo sapiens, UniProt Q99705).
T7 construct: purchased Perkin Elmer Biosignal
As to the kind of experiment: Radioligand binding, human melanin-concentrating hormone MCH1 membranes, FlashPlate, [125I]-S36057. Conditions: compound at 10 μM; for A6: inhibition of radioligand binding, human melanin-concentrating hormone (MCH1): [125I]-S36057. In short, it runs like this: as §2

The target of test [8] is T8, Human Melanocortin (MC4) (Homo sapiens, UniProt P32245).
T8 construct: purchased Perkin Elmer Biosignal
As to the kind of experiment: Radioligand binding, human melanocortin MC4 membranes, FlashPlate, [125I]-NDP-αMSH. Conditions: compound at 10 μM. An outline of the steps:
as §2

The target in test [9] is T9, Human opioid (ORL1) (Homo sapiens, UniProt P41146).
T9 construct: purchased Perkin Elmer Biosignal
Briefly: Radioligand binding, human opioid ORL1 membranes, FlashPlate, [125I]-Nociceptin. The settings on record: compound at 10 μM. In short, it runs like this:
as §2

Test [10] addresses T10, Human Melanocortin (MC3) (Homo sapiens, UniProt P41968).
T10 construct: purchased Perkin Elmer Biosignal
Briefly: Radioligand binding, human melanocortin MC3 membranes, FlashPlate, [125I]-NDP-αMSH. Conditions: compound at 10 μM. An outline of the steps: as §2

For test [11], the target named is T11, Human neurokinin (NK1) (Homo sapiens, UniProt P25103).
T11 construct: purchased Perkin Elmer Biosignal
As to the kind of experiment: Radioligand binding, human neurokinin NK1 membranes, filtration, [125I]-Substance P. The settings on record: compound at 10 μM. An outline of the steps: as §1

T10 sequence (P41968 whole entry): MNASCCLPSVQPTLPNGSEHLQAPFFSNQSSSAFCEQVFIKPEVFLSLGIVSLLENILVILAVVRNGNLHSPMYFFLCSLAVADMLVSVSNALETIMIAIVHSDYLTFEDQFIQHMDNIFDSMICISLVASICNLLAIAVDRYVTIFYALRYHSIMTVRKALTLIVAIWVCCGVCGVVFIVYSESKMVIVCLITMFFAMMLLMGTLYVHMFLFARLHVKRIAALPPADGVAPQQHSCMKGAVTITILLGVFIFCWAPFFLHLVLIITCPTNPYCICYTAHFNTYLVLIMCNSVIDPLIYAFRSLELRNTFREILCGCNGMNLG
T2 sequence (P41143 whole entry): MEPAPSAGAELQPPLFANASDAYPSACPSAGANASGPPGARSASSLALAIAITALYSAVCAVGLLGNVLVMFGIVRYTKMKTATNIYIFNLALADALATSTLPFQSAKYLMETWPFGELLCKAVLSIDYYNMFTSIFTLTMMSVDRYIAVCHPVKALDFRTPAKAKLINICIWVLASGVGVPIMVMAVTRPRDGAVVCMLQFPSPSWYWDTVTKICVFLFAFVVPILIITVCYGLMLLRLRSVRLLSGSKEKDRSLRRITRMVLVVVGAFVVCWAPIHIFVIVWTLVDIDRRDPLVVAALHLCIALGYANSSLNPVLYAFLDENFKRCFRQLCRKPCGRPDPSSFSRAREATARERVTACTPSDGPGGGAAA
T9 sequence (P41146 whole entry): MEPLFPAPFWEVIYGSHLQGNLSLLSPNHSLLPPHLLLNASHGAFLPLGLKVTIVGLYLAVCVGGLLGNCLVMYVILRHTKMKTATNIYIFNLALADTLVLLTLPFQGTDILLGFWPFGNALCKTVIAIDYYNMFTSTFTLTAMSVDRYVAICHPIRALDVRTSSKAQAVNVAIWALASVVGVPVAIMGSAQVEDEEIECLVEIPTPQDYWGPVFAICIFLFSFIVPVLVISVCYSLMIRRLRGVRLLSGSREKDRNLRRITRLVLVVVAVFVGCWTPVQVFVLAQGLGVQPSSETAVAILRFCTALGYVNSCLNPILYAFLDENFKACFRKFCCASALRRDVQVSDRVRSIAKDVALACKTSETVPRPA
T4 sequence (P35372 whole entry): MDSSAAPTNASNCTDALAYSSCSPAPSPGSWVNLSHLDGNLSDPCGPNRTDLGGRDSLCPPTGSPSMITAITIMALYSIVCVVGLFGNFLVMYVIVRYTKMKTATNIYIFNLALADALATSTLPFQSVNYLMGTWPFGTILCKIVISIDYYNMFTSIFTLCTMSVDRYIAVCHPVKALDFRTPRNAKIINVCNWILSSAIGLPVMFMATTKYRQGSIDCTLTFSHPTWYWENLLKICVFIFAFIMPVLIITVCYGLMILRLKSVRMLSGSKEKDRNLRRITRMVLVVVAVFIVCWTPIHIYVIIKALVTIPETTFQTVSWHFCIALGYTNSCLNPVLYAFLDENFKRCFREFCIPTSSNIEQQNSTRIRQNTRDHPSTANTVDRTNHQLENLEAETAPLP
T8 sequence (P32245 whole entry): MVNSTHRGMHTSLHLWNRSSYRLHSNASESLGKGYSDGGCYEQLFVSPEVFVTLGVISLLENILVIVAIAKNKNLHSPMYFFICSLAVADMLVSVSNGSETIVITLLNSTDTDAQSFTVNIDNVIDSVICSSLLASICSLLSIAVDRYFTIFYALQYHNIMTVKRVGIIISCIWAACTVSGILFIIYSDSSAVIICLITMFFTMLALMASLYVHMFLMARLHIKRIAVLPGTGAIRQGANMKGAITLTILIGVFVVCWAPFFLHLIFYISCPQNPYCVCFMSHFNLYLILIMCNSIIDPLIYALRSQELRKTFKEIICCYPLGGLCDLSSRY
T7 sequence (Q99705 whole entry): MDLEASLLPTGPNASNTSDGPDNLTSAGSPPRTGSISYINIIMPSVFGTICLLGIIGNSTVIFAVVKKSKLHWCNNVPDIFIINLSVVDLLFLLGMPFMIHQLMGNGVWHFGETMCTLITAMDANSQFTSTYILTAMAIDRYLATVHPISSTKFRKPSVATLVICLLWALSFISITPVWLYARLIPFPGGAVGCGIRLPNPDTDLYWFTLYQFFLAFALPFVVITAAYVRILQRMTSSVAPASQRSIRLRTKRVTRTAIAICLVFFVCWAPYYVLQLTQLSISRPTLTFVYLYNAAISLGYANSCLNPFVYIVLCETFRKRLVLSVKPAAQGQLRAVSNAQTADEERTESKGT
T3 sequence (P33032 whole entry): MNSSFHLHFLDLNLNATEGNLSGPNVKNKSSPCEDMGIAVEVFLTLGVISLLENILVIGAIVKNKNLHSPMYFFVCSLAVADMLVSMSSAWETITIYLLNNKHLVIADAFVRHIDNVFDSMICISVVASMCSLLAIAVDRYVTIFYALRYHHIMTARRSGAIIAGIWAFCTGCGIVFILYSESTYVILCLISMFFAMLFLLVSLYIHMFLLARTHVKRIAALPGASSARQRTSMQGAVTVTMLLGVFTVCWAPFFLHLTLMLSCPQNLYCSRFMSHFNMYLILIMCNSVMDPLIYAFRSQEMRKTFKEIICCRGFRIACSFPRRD
T11 sequence (P25103 whole entry): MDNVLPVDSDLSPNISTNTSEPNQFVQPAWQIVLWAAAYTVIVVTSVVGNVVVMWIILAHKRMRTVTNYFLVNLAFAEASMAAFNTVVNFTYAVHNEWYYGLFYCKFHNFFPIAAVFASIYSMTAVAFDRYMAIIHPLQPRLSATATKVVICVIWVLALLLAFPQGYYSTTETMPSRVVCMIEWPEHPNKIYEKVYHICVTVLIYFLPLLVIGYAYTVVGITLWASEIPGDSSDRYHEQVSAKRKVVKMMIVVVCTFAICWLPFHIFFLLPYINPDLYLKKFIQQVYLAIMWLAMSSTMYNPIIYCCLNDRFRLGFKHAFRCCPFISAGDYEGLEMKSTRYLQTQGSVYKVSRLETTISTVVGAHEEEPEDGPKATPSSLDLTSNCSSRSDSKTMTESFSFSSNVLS
T1 sequence (P41145 whole entry): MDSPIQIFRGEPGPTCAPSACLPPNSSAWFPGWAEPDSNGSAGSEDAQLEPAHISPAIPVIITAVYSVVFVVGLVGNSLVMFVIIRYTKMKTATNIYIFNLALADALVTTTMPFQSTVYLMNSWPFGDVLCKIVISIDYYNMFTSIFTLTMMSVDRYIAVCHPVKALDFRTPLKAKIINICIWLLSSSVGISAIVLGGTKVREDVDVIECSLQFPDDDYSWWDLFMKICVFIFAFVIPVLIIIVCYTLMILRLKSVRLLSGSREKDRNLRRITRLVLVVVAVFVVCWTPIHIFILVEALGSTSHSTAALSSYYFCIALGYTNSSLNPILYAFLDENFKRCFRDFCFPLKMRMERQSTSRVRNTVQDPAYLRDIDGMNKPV

For `CO[C@H]1[C@H](O)[C@@H](COCc2ccc(Cl)cc2)OC(OCc2ccccc2)[C@@H]1NC(=O)CCNC(=N)N` (some centres unmarked) [compound 91], the “A2 radioligand binding inhibition” value in [1] (human κ-opioid (KOP) membranes) is recorded as “− (“−” indicates less than 50% inhibition at 10 μM)”. Further, in test [2] (human δ-opioid (DOP) membranes), the “A1 radioligand binding inhibition” value is “− (“−” indicates less than 50% inhibition at 10 μM)”. In addition, the “A5 radioligand binding inhibition” value in [3] (human melanocortin MC5 membranes) is “− (“−” indicates less than 50% inhibition at 10 μM)”. Also, the “A7 radioligand binding inhibition” value in test [4] (human μ-opioid (MOP) membranes) was “− (“−” indicates less than 50% inhibition at 10 μM)”. Further, the “A11 radioligand binding inhibition” value in test [5] (mouse urotensin mUR2 membranes) is recorded as “− (“−” indicates less than 50% inhibition at 10 μM)”. Also, the “A9 radioligand binding inhibition” value in test [6] (human NPY-Y1 membranes) is “− (“−” indicates less than 50% inhibition at 10 μM)”. Besides, the “A6 radioligand binding inhibition” value in test [7] (human MCH1 membranes) is “− (“−” indicates less than 50% inhibition at 10 μM)”. Also, the “A4 radioligand binding inhibition” value in test [8] (human melanocortin MC4 membranes) is listed as “− (“−” indicates less than 50% inhibition at 10 μM)”. Also, in [9] (human ORL1 membranes), the “A10 radioligand binding inhibition” value is reported as “− (“−” indicates less than 50% inhibition at 10 μM)”. Also, the “A3 radioligand binding inhibition” value in test [10] (human melanocortin MC3 membranes) is “− (“−” indicates less than 50% inhibition at 10 μM)”. The “A8 radioligand binding inhibition” value in test [11] (human neurokinin NK1 membranes) is given as “+ (“+” indicates greater than 50% inhibition at 10 μM)”.
For `NCCCC(=O)NC1C(OCc2ccc(Cl)cc2)OC(COCc2ccc3ccccc3c2)C(O)C1OCc1ccccc1` (single isomer, unassigned) [compound 502], the “A2: inhibition of radioligand binding, human κ-opioid (KOP)” value in test [1] ([3H]-Diprenorphine) is “− (“−” indicates less than 50% inhibition at 10 μM)”. Besides, the “A1: inhibition of radioligand binding, human δ-opioid (DOP)” value in [2] ([3H]-Bremazocine) is “− (“−” indicates less than 50% inhibition at 10 μM)”. The “A5: inhibition of radioligand binding, human melanocortin (MC5)” value in [3] ([125I]-NDP-αMSH) is “+ (“+” indicates greater than 50% inhibition at 10 μM)”. Besides, the “A7: inhibition of radioligand binding, human μ-opioid (MOP)” value in test [4] ([3H]-Naloxone, 10 µM) is reported as “+ (“+” indicates greater than 50% inhibition at 10 μM)”. Besides, the “A11: inhibition of radioligand binding, mouse urotensin (mUR2)” value in test [5] ([125I]-Urotensin II) was “− (“−” indicates less than 50% inhibition at 10 μM)”. Also, the “A9: inhibition of radioligand binding, human neuropeptide Y (NPY-Y1)” value in [6] ([125I]-PYY) was “− (“−” indicates less than 50% inhibition at 10 μM)”. In addition, the “A6: inhibition of radioligand binding, human melanin-concentrating hormone (MCH1)” value in test [7] (10 µM) is reported as “+ (“+” indicates greater than 50% inhibition at 10 μM)”. The “A4: inhibition of radioligand binding, human melanocortin (MC4)” value in test [8] ([125I]-NDP-αMSH) is “+ (“+” indicates greater than 50% inhibition at 10 μM)”. Moreover, the “A10: inhibition of radioligand binding, human opioid (ORL1)” value in test [9] ([125I]-Nociceptin) is reported as “+ (“+” indicates greater than 50% inhibition at 10 μM)”. For the same compound, in test [10] ([125I]-NDP-αMSH, 10 µM), the “A3: inhibition of radioligand binding, human melanocortin (MC3)” value was “− (“−” indicates less than 50% inhibition at 10 μM)”. In addition, the “A8: inhibition of radioligand binding, human neurokinin (NK1)” value in test [11] ([125I]-Substance P) was “+ (“+” indicates greater than 50% inhibition at 10 μM)”.
With `CSC1O[C@H](COCc2ccc(Cl)cc2)[C@@H](O)[C@@H](OCc2ccc(-c3ccccc3)cc2)[C@H]1NC(=O)CCNC(=N)N` (some centres unmarked) [compound 291], the “A2: inhibition of radioligand binding, human κ-opioid (KOP)” value in test [1] ([3H]-Diprenorphine) is listed as “− (“−” indicates less than 50% inhibition at 10 μM)”. In addition, in [2] ([3H]-Bremazocine), the “A1: inhibition of radioligand binding, human δ-opioid (DOP)” value was “− (“−” indicates less than 50% inhibition at 10 μM)”. Moreover, in test [3] ([125I]-NDP-αMSH), the “A5: inhibition of radioligand binding, human melanocortin (MC5)” value is given as “− (“−” indicates less than 50% inhibition at 10 μM)”. Also, the “A7: inhibition of radioligand binding, human μ-opioid (MOP)” value in test [4] ([3H]-Naloxone) is “− (“−” indicates less than 50% inhibition at 10 μM)”. Besides, the “A11: inhibition of radioligand binding, mouse urotensin (mUR2)” value in [5] ([125I]-Urotensin II) is reported as “− (“−” indicates less than 50% inhibition at 10 μM)”. In test [6] ([125I]-PYY), the “A9: inhibition of radioligand binding, human neuropeptide Y (NPY-Y1)” value is listed as “− (“−” indicates less than 50% inhibition at 10 μM)”. Also, the “A6: inhibition of radioligand binding, human melanin-concentrating hormone (MCH1)” value in [7] was “− (“−” indicates less than 50% inhibition at 10 μM)”. Moreover, the “A4: inhibition of radioligand binding, human melanocortin (MC4)” value in test [8] ([125I]-NDP-αMSH) is on record as “+ (“+” indicates greater than 50% inhibition at 10 μM)”. The “A10: inhibition of radioligand binding, human opioid (ORL1)” value in [9] ([125I]-Nociceptin) is given as “− (“−” indicates less than 50% inhibition at 10 μM)”. The “A3: inhibition of radioligand binding, human melanocortin (MC3)” value in test [10] ([125I]-NDP-αMSH) is “− (“−” indicates less than 50% inhibition at 10 μM)”. Moreover, the “A8: inhibition of radioligand binding, human neurokinin (NK1)” value in test [11] ([125I]-Substance P) is “+ (“+” indicates greater than 50% inhibition at 10 μM)”.
Take `NCCC(=O)NC1C(OCc2ccc3ccccc3c2)OC(COCc2ccc3ccccc3c2)C(O)C1OCc1ccc(Cl)cc1` (centres unmarked) [compound 381]: the “A2: inhibition of radioligand binding” value in test [1] ([3H]-Diprenorphine, human KOP membranes) was “− (“−” indicates less than 50% inhibition at 10 μM)”. Besides, the “A1: inhibition of radioligand binding” value in test [2] ([3H]-Bremazocine, human DOP membranes) is “− (“−” indicates less than 50% inhibition at 10 μM)”. In addition, the “A5: inhibition of radioligand binding” value in test [3] ([125I]-NDP-αMSH, human MC5 membranes) is given as “+ (“+” indicates greater than 50% inhibition at 10 μM)”. The “A7: inhibition of radioligand binding” value in test [4] ([3H]-Naloxone, human MOP membranes) is “− (“−” indicates less than 50% inhibition at 10 μM)”. Further, the “A11: inhibition of radioligand binding” value in [5] ([125I]-Urotensin II, mouse mUR2 membranes) is given as “− (“−” indicates less than 50% inhibition at 10 μM)”. Further, the “A9: inhibition of radioligand binding” value in [6] ([125I]-PYY, human NPY-Y1 membranes) is reported as “− (“−” indicates less than 50% inhibition at 10 μM)”. Further, the “A6: inhibition of radioligand binding” value in test [7] ([125I]-S36057, human MCH1 membranes) is “− (“−” indicates less than 50% inhibition at 10 μM)”. In addition, in [8] ([125I]-NDP-αMSH, human MC4 membranes), the “A4: inhibition of radioligand binding” value is reported as “+ (“+” indicates greater than 50% inhibition at 10 μM)”. Moreover, the “A10: inhibition of radioligand binding” value in test [9] ([125I]-Nociceptin, human ORL1 membranes) is on record as “− (“−” indicates less than 50% inhibition at 10 μM)”. Also, the “A3: inhibition of radioligand binding” value in [10] ([125I]-NDP-αMSH, human MC3 membranes) is listed as “+ (“+” indicates greater than 50% inhibition at 10 μM)”. In addition, the “A8: inhibition of radioligand binding” value in test [11] ([125I]-Substance P, human NK1 membranes) is reported as “+ (“+” indicates greater than 50% inhibition at 10 μM)”.

The record behind these values is patent US20080009418A1, “Selective Inhibitors” (Alchemia LTD., priority 2004, published 2008).
